Test results: patent US6750194B1, “Methods of identifying compounds for regulating muscle mass or function using vasoactive intestinal peptide receptors” (The Procter & Gamble Company, priority 2000, dated 2004)
Ends that are not written are not given here.

How the values were obtained:
[1] = tested on: skeletal muscle atrophy; assay: Animal models of skeletal muscle atrophy, summary of FIGS. 1-5; format: in vivo; details: theophylline alone
[2] = tested on: denervated tibialis anterior and medial gastrocnemius muscles; assay: Mouse denervation atrophy model, agonists subcutaneously 2x daily with theophylline (FIG. 1); format: in vivo; details: male mice, right sciatic nerve denervation; 0.1 and 0.3 mg/kg s.c. 2x daily + theophylline 30 mg/kg i.p. 2x daily, nine days; versus saline
Description: Legend for the X-axis: A: Saline, B: VPAC1R agonist (0.1 mg/kg)+T, C: VPAC1R agonist (0.3 mg/kg)+T, D: VPAC2R agonist (0.1 mg/kg)+T, E: VPAC2R agonist (0.3 mg/kg)+T, F: PACAP-38 (0.1 mg/kg)+T, G: PACAP-38 (0.3 mg/kg)+T.
(VPAC1R agonist), the VPAC2 receptor selective agonist, Ro 25-1553 (VPAC2R agonist), or the VPAC1/VPAC2 receptor nonselective agonist, PACAP-38. Following denervation of the right sciatic nerve, male mice were injected subcutaneously in the midscapular region twice daily, with either the above indicated agents at the doses indicated in FIGS. 1A and 1B or vehicle control (physiological saline) for nine days. These agonists were co-administered with twice daily intra-peritoneal dosing of the phosphodiesterase inhibitor theophylline (T-30 mg/kg) (included to increase the magnitude and the duration of action of cAMP signals induced by the VPAC receptor agonists). On day nine, the medial gastrocnemius and tibialis anterior muscles were removed and weighed to determine the degree of atrophy. […] Statistical significance of the results were determined using ANCOVA (Douglas C. Montgomery, Design and Analysis of Experiments, John Wiley and Sons, New York (2nd ed. 1984)).
The sciatic nerve denervation atrophy model involves anesthetizing the animal followed by the surgical removal of a short segment of either the right or left sciatic nerve, e.g. in mice the sciatic nerve is isolated approximately at the midpoint along the femur and a 3-5 mm segment is removed. This denervates the lower hind limb musculature resulting in atrophy of these muscles. Typically, innervation to the biceps femoris is left intact to provide satisfactory motion of the knee for virtually normal ambulation. Typically, in untreated animals, muscle mass of the denervated muscles is reduced 30-50% ten days following denervation. Following denervation, test compounds are administered e.g., by injection or by continuous infusion, e.g. via implantation of an osmotic minipump (e.g. Alza, Palo Alto, Calif.), to determine their effect on denervation induced skeletal muscle atrophy. At various times following denervation, the animals are euthanized and lower leg muscles are dissected rapidly from both the denervated and nondenervated legs, the muscles, cleaned of tendons and connective tissue, are weighed. The extent of atrophy in the affected muscles is analyzed, for example, by measuring muscle mass, muscle cross-sectional area, myofiber cross-sectional area or contractile protein content.

[3] = tested on: glucocorticoid-induced atrophied tibialis anterior and medial gastrocnemius muscles; assay: Mouse glucocorticoid (dexamethasone)-induced atrophy model (FIG. 3); format: in vivo; details: male mice, dexamethasone 1.2 mg/kg/d in drinking water; 0.1 and 0.3 mg/kg s.c. 2x daily + theophylline 30 mg/kg i.p., nine days
Description: Legend for the X-axis: 1: Saline+Dexamethasone (1.2 mg/kg/day included in the drinking water), 2: PACAP-38 (0.1 mg/kg)+Dexamethasone+T, 3: PACAP-38 (0.3 mg/kg)+Dexamethasone+T, 4: VPAC1R agonist (0.1 mg/kg)+Dexamethasone+T, 5: VPAC1R agonist (0.3 mg/kg)+Dexamethasone+T, 6: VPAC2R agonist (0.1 mg/kg)+Dexamethasone+T, 7: VPAC2R agonist (0.3 mg/kg)+Dexamethasone+T.
(VPAC1R agonist), the VPAC2 receptor selective agonist, Ro 25-1553 (VPAC2R agonist), or the VPAC1/VPAC2 receptor nonselective agonist, PACAP-38. Following the addition of the glucocorticoid, dexamethasone to the drinking water (1.2 mg/kg/d), male mice were injected subcutaneously in the midscapular region twice daily, with either the above indicated agents at the doses indicated in FIGS. 3A and 3B or vehicle control (physiological saline) for nine days. These agonists were co-administered with twice daily intra-peritoneal dosing of the phosphodiesterase inhibitor theophylline (T—30 mg/kg). Nine days following the initiation of dosing of the VPAC receptor agonists and dexamethasone, the medial gastrocnemius and tibialis anterior muscles were removed and weighed to determine the degree of atrophy. […] Statistical significance of the results were determined using ANCOVA.
The glucocorticoid induced atrophy model involves the administration of a glucocorticoid to the test animal, e.g. 1.2 mg/kg/day of dexamethasone in the drinking water. Typically, in untreated animals, skeletal muscle mass is reduced 30-50% following ten days of dexamethasone administration. Concomitantly with, or following glucocorticoid administration, test compounds are administered e.g., by injection or by continuous infusion to determine their effect on glucocorticoid induced skeletal muscle atrophy. At various times following glucocorticoid administration, the extent of atrophy in the affected muscles is analyzed as described above for the denervation model.

[4] = tested on: casting-induced atrophied tibialis anterior muscle and normal medial gastrocnemius muscle; assay: Mouse disuse (casting) atrophy model (FIG. 4); format: in vivo; details: male mice, right hind leg cast; 0.03, 0.1, 0.3 mg/kg s.c. 2x daily + theophylline 30 mg/kg i.p., nine days
Description: (§1) Legend for the X-axis: A: Saline, B: VPAC2R agonist (0.03 mg/kg)+T, C: VPAC2R agonist (0.1 mg/kg)+T, D: VPAC2R agonist (0.3 mg/kg)+T.
Following casting of the right hind leg, male mice were injected subcutaneously in the midscapular region twice daily, with either the above indicated agent at the doses indicated in FIGS. 4A and 4B or vehicle control (physiological saline) for nine days. The VPAC2R agonist was co-administered with twice daily intra-peritoneal dosing of the phosphodiesterase inhibitor theophylline (T—30 mg/kg). On day nine, the medial gastrocnemius and tibialis anterior muscles were removed and weighed to determine the degree of atrophy. […] Statistical significance of the results were determined using ANCOVA.
The leg casting disuse atrophy model involves casting one hind leg of an animal from the knee down through the foot. Typically, muscle mass is reduced 20-40% after ten days of casting. Following casting, test compounds are administered by injection or by continuous infusion via implantation of an osmotic minipump (e.g. Alza, Palo Alto, Calif.) to determine their effect on leg casting induced skeletal muscle atrophy. At various times following leg casting, the extent of atrophy in the affected muscles is analyzed as described above for the denervation model.

[5] = tested on: atrophy of the skeletal muscle of the entire body due to disuse; assay: Prophylactic treatment of skeletal muscle atrophy in a comatose subject (Example 11); format: in vivo; details: human 50 kg, 3 ml of 500 mg/ml with D,L lactic and glycolic acid copolymer i.m. once each month
Description: A human subject weighing 50 kg is admitted to the hospital in a comatose state. The subject is treated to prevent atrophy of the skeletal muscle of the entire body due to disuse while in the comatose state. Specifically, once each month while in the coma, the subject is administered, via intramuscular injection, 3 ml of an aqueous solution of pH 6.0 comprising the following: […]

[6] = tested on: denervated tibialis anterior and extensor digitorum longus (EDL) muscles; assay: Rat denervation atrophy model (FIG. 5); format: in vivo; details: male rats, right sciatic nerve denervation; 0.03, 0.1, 0.3 mg/kg s.c. 2x daily + theophylline 30 mg/kg i.p., nine days
Description: as §1
Following denervation of the right sciatic nerve, male rats were injected subcutaneously in the midscapular region twice daily, with either the VPAC2R receptor agonist at the doses indicated in FIGS. 5A and 5B or vehicle control (physiological saline) for nine days. The VPAC2R receptor agonist was co-administered with twice daily intra-peritoneal dosing of the phosphodiesterase inhibitor theophylline (T—30 mg/kg). On day nine, the tibialis anterior and extensor digitorum longus (EDL) muscles were removed and weighed to determine the degree of atrophy. […] Statistical significance of the results were determined using ANCOVA.
(§2) The sciatic nerve denervation atrophy model involves anesthetizing the animal followed by the surgical removal of a short segment of either the right or left sciatic nerve, e.g. in mice the sciatic nerve is isolated approximately at the midpoint along the femur and a 3-5 mm segment is removed. This denervates the lower hind limb musculature resulting in atrophy of these muscles. […] The extent of atrophy in the affected muscles is analyzed, for example, by measuring muscle mass, muscle cross-sectional area, myofiber cross-sectional area or contractile protein content.

[7] = tested on: denervated and non-denervated (control) tibialis anterior and medial gastrocnemius muscles; assay: Mouse denervation atrophy model, continuous infusion by osmotic minipump (FIG. 2); format: in vivo; details: male mice, continuous infusion by osmotic minipump 0.3, 1, 3 mg/kg daily, no theophylline, day nine
Description: Legend for the X-axis: A: water infused, B: VPAC1R agonist (0.3 mg/kg), C: VPAC1R agonist (1 mg/kg), D: VPAC1R agonist (3 mg/kg), E: VPAC2R agonist (0.3 mg/kg), F: VPAC2R agonist (1 mg/kg), G: VPAC2R agonist (3 mg/kg), H: PACAP-38 (0.3 mg/kg), I: PACAP-38 (1 mg/kg), PACAP-38 (3 mg/kg).
(VPAC1R agonist), the VPAC2 receptor selective agonist, Ro 25-1553 (VPAC2R agonist), or the VPAC1/VPAC2 receptor nonselective agonist, PACAP-38. Following denervation of the right sciatic nerve, male mice were dosed with the above indicated agents or vehicle control (physiological saline) by continuous infusion using an ALZeT osmotic minipump at 5 μl/hr until the end of the experimental period. The daily delivered dose of the agents are as indicated on FIGS. 2A and 2B. Minipump implantation was performed at the same time as the sciatic nerve denervation. On day nine the medial gastrocnemius and tibialis anterior muscles were removed and weighed to determine the degree of atrophy. […] Statistical significance of the results were determined using ANCOVA.
as §2, with “muscles. Typically, innervation to the biceps femoris is left intact to provide satisfactory motion of the knee for virtually normal ambulation. Typically, in untreated animals, muscle mass of the denervated muscles is reduced 30-50% ten days following denervation.” for “muscles.”

[8] = molecular target: T1, VPAC2 receptor (Homo sapiens, UniProt P41587); details: relative to PACAP38; cited from earlier work
T1 sequence (P41587 24-438): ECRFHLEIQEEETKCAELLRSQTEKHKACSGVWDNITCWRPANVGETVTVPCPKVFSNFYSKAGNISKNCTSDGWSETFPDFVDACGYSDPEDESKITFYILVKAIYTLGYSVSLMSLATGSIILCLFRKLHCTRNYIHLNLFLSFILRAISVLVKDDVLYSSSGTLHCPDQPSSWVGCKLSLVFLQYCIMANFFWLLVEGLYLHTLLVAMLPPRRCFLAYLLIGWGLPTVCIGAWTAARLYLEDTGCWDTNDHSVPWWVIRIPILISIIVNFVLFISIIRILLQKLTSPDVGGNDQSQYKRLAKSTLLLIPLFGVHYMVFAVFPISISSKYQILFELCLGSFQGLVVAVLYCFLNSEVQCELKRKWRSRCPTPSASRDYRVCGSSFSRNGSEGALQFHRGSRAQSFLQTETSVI

[9] = molecular target: T2, VPAC1 receptor (Homo sapiens, UniProt P32241); details: relative to PACAP38; cited from earlier work
T2 sequence (P32241 31-457): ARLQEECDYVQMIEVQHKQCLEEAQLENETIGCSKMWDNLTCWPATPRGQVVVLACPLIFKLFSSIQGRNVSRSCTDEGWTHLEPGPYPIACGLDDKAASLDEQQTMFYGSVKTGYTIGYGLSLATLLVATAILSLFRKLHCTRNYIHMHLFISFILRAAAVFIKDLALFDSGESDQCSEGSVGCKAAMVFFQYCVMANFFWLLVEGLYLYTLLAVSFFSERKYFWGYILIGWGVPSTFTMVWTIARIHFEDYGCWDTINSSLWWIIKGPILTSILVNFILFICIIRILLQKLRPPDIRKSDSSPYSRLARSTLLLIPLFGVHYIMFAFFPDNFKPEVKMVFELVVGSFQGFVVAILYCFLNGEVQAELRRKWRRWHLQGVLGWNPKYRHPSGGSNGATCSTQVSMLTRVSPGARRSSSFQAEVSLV

## Cn1c(=O)c2[nH]cnc2n(C)c1=O [Theophylline, theophylline]
[1]
  effect of theophylline administered by itself in the atrophy models: no effect

## PACAP-38 (HSDGIFTDSYSRYRKQMAVKKYLAAVLGKRYKQRVKNK; ends and bridges not checked; UniProt P18509 132-169, looked up)
[2]
  atrophy of the denervated medial gastrocnemius muscle (muscle weight, FIG. 1B): inhibited atrophy
  atrophy of the denervated tibialis anterior muscle (muscle weight, FIG. 1A): inhibited atrophy
[3]
  muscle atrophy of the medial gastrocnemius induced by glucocorticoid administration (FIG. 3B): inhibits muscle atrophy

## Ro 25-1553
[2]
  atrophy of the denervated medial gastrocnemius muscle (muscle weight, FIG. 1B): inhibited atrophy
  atrophy of the denervated tibialis anterior muscle (muscle weight, FIG. 1A): inhibited atrophy
[4]
  disuse-induced atrophy of the tibialis anterior muscle (FIG. 4A): inhibited disuse-induced atrophy
  hypertrophy of the medial gastrocnemius muscle (normal, FIG. 4B): induced hypertrophy
[3]
  muscle atrophy of the medial gastrocnemius induced by glucocorticoid administration (FIG. 3B): inhibited muscle atrophy
  muscle atrophy of the tibialis anterior induced by glucocorticoid administration (FIG. 3A): inhibited muscle atrophy
[5]
  skeletal muscle mass and physical therapy needs: measurable preservation of skeletal muscle mass and reduced physical therapy needs
[6]
  atrophy of the denervated EDL muscle (FIG. 5B): inhibited atrophy
  atrophy of the denervated tibialis anterior muscle (FIG. 5A): inhibited atrophy
[7]; sciatic denervation
  atrophy of the denervated tibialis anterior muscle (muscle weight, FIG. 2A): inhibited atrophy
[7]
  hypertrophy of the non-denervated (control) medial gastrocnemius muscle (FIG. 2B): induced hypertrophy
  hypertrophy of the non-denervated (control) tibialis anterior muscle (FIG. 2A): induced hypertrophy
[8]
  potency as VPAC2 receptor selective agonist: potency similar to PACAP38

## [K^15, R^16, L^27VIP(1-7), GRF(8-27)-NH2]
[2]
  atrophy of the denervated medial gastrocnemius muscle (muscle weight, FIG. 1B): inhibited atrophy
[9]
  potency as VPAC1 receptor selective agonist: potency similar to PACAP38
[3]
  muscle atrophy of the tibialis anterior induced by glucocorticoid administration (FIG. 3A): inhibited muscle atrophy
